This note sets out measurements from US20250169501A1, “Metal(loid)-Based Compositions and Uses Thereof Against Bacterial Biofilms” (CCREST Laboratories Inc., priority 2022, published 2025).

Read-outs that look alike come from different tables or passages of the source. Some results are limits rather than exact numbers.

The test system of one assay is 39 clinical isolates. Kind of assay: Antibiotic resistance of the clinical isolates. Type of assay: cell-based. The conditions noted are these: out of 39 clinical isolates.
The subject of assay [1] is P. aeruginosa biofilm. The format is cell-based, Pseudomonas aeruginosa.
In the next assay the test system is P. aeruginosa PAO1. Kind of assay: In vitro resistance acquisition, serial passage. The format is cell-based, Pseudomonas aeruginosa. To be noted: SWF, sublethal (1/8 MIC) concentration, 7 days. As to the method:
Serial passage of growth as a screen for resistant P. aeruginosa PAO1 was carried out for 7 days in SWF supplemented with sublethal (1/8 dilution from the MIC) concentrations of Ag, Te, and Ag—Te mixture. […] Strains of P. aeruginosa PAO1 were grown in sublethal (1/8th MIC) concentrations of Ag, Te or a mixture of the two antimicrobials, for 7 days.
The impact of the MBAs on antibiotic resistance was also tested. Serial passage of growth as a screen for resistant P. aeruginosa PAO1 was performed for 7 days in SWF supplemented with sublethal (1/8 dilution from the MIC) concentrations of Ag, Te, and Ag—Te mixture.

The subject of another assay is P. aeruginosa. The format is cell-based, Pseudomonas aeruginosa. To be noted: SWF; for recovery of bacteria in the same fresh media after treatment: read after 2, 4 and 24 hours; for dilution in which bacteria recovered when agent used alone: vs combination. From the text: For the MBC and recovery potency of bacteria. […] The last well that had no bacterial growth was defined as the MBC.

Assay [2] deals with P. aeruginosa biofilm. Type of assay: cell-based, Pseudomonas aeruginosa. This is another data set of the same source.

Take gentamicin: the “clinical isolates resistant to the antibiotic” value with 39 clinical isolates is 15 (38%) isolates (%).

For the compound `O=[Te]([O-])[O-].[K+].[K+]` [Te, potassium tellurite], the “Eradication of P. aeruginosa biofilm (MBEC)” value in the assay on P. aeruginosa biofilm [1] (LB, in 24 h) came to 0.5 mM; in the assay with P. aeruginosa biofilm [1] (MHB, in 24 h) it was 0.5 mM; in the assay with P. aeruginosa biofilm [1] (SWF, in 24 h), 0.5 mM. In addition, in the assay on P. aeruginosa PAO1, the “occurrence of resistance during serial passage” value was “after five days”. Moreover, in the assay with P. aeruginosa, the “recovery of bacteria in the same fresh media after treatment” value was “couldn't inhibit the recovery of bacteria”. Besides, the “dilution in which bacteria recovered when agent used alone” value in the assay with P. aeruginosa is on record as “two-fold higher dilution”. Besides, the “Inhibition of P. aeruginosa biofilm (MBIC)” value with P. aeruginosa biofilm [2] (LB, in 48 h) was 0.5 mM; in the assay with P. aeruginosa biofilm [2] (MHB, in 48 h) it was 0.5 mM; with P. aeruginosa biofilm [2] (SWF, in 48 h), 0.5 mM.

For `O=[N+]([O-])[O-].O=[N+]([O-])[O-].O=[N+]([O-])[O-].[Ga+3]` [Ga, gallium nitrate], the “Eradication of P. aeruginosa biofilm (MBEC)” value in the assay with P. aeruginosa biofilm [1] (LB, in 24 h) is reported as 3 mM; in the assay with P. aeruginosa biofilm [1] (MHB, in 24 h), 3 mM; with P. aeruginosa biofilm [1] (SWF, in 24 h), 12.5 mM. In addition, the “Inhibition of P. aeruginosa biofilm (MBIC)” value in the assay on P. aeruginosa biofilm [2] (LB, in 48 h) is on record as 12.5 mM; in the assay on P. aeruginosa biofilm [2] (MHB, in 48 h), 12.5 mM; with P. aeruginosa biofilm [2] (SWF, in 48 h) it was 25 mM.

As for `O=[N+]([O-])[O-].[Ag+]` [Ag, silver nitrate], the “Eradication of P. aeruginosa biofilm (MBEC)” value was 0.065 mM in the assay on P. aeruginosa biofilm [1] (LB, in 24 h); 0.03 mM with P. aeruginosa biofilm [1] (MHB, in 24 h); 0.5 mM with P. aeruginosa biofilm [1] (SWF, in 24 h). For the same compound, the “occurrence of resistance during serial passage” value with P. aeruginosa PAO1 was “after two days”. In the assay with P. aeruginosa, the “recovery of bacteria in the same fresh media after treatment” value is “couldn't inhibit the recovery of bacteria”. Besides, in the assay with P. aeruginosa, the “dilution in which bacteria recovered when agent used alone” value is “three-fold higher dilution”. Further, the “Inhibition of P. aeruginosa biofilm (MBIC)” value with P. aeruginosa biofilm [2] (LB, in 48 h) is reported as 0.125 mM; with P. aeruginosa biofilm [2] (MHB, in 48 h), 0.03 mM; with P. aeruginosa biofilm [2] (SWF, in 48 h), 0.25 mM.

As for `O=[Se](O)O` [Se, sodium selenite], the “Eradication of P. aeruginosa biofilm (MBEC)” value with P. aeruginosa biofilm [1] (LB, in 24 h) is more than 50 mM; in the assay on P. aeruginosa biofilm [1] (MHB, in 24 h), more than 50 mM; in the assay with P. aeruginosa biofilm [1] (SWF, in 24 h), more than 50 mM. Also, the “Inhibition of P. aeruginosa biofilm (MBIC)” value was more than 50 mM in the assay on P. aeruginosa biofilm [2] (LB, in 48 h); more than 50 mM in the assay on P. aeruginosa biofilm [2] (MHB, in 48 h); more than 50 mM with P. aeruginosa biofilm [2] (SWF, in 48 h).

On to `[Au+3].[Cl-].[Cl-].[Cl-].[Cl-]` [Au, tetrachloroaurate], for which the “Eradication of P. aeruginosa biofilm (MBEC)” value in the assay with P. aeruginosa biofilm [1] (LB, in 24 h) worked out at 0.25 mM; in the assay on P. aeruginosa biofilm [1] (MHB, in 24 h), 0.25 mM; in the assay on P. aeruginosa biofilm [1] (SWF, in 24 h) it was 1 mM. In addition, the “Inhibition of P. aeruginosa biofilm (MBIC)” value in the assay with P. aeruginosa biofilm [2] (LB, in 48 h) was 0.5 mM; in the assay with P. aeruginosa biofilm [2] (MHB, in 48 h) it was 0.25 mM; in the assay with P. aeruginosa biofilm [2] (SWF, in 48 h) it was 0.25 mM.

For `O=S(=O)([O-])[O-].[Cu+2]` [Cu, copper sulfate], in the assay on P. aeruginosa biofilm [1], the “Eradication of P. aeruginosa biofilm (MBEC)” value is on record as 6.25 mM. In addition, in the assay with P. aeruginosa biofilm [2], the “Inhibition of P. aeruginosa biofilm (MBIC)” value came to 8 mM.
